Measured values reported in patent publication US8785614B2, “Aberrantly methylated genes in pancreatic cancer” (The Johns Hopkins University, priority 2003, dated 2014).
Like-named read-outs stand apart in the source and are kept apart here.

Tested on: four pancreatic cancer cell lines (AsPC1, Hs766T, MiaPaCa2, Panc1)
Method: Mock-treated cells were cultured with the equivalent volume of PBS alone.
Total RNA was isolated from cultured cells using TRIZOL reagent (invitrogen, Carlsbad, Calif.) and purified using RNeasy Mini Kit (Qiagen, Valencia, Calif.). First- and second-stranded cDNA was synthesized from 10 μg of total RNA using 17-dT) primer (Genset Corp., La Jolla, Calif.) and Superscript Choice system (Invitrogen). Labeled cRNA was synthesized from the purified cDNA by in vitro transcription reaction using the BioArray High Yield RNA Transcript Labeling Kit (Enzo Diagnostics, Inc., Farmingdale, N.Y.) at 37° C. for 6 h. The cRNA was fragmented at 94° C. for 35 min. in a fragmentation buffer [40 mM Tris-acetate @ pH 8.1, 100 mM potassium acestate, and 30 mM magnesium acetate]. The fragmented cRNA was then hybridized to the Human Genome U133A chips (Affymetrix, Santa Clara, Calif.) with 18462 unique gene/EST transcripts at 45° C. for 16 h. The washing and staining procedure was performed in the Affymetrix Fluidics Station according to the manufacturer's instructions. The probes were then scanned using a laser scanner, and signal intensity for each transcript (background-subtracted and adjusted for noise) was calculated using Microarray Suite Software 5.0 (Affymetrix).
Fold change analysis of signal intensities obtained from oligonucleotide microarrays between the two treatment groups was performed using Data Mining software (Afrymetrix).
The global changes in gene expression proxies induced by 5Aza-dC in four pancreatic cancer cell lines (AsPCl, Hs766T, MiaPaCa2, and Panel) were determined using the Afrymetrix U133 oligonucleotide microarrays with 18462 probes sets (transcripts) covering over 13000 full-length sequences of known genes.

Nc1ncn([C@H]2C[C@H](O)[C@@H](CO)O2)c(=O)n1 [5Aza-dC, 5 aza 2′ deoxycytidine]
~200 transcripts: average number of transcripts induced per cell line (range 116-251 transcripts)
590 transcripts: transcripts specifically up-regulated by 5Aza-dC treatment in pancreatic cancers (after excluding those reactivated in HPDE)
475 genes: genes markedly up-regulated by 5Aza-dC treatment (in one or more pancreatic cancer cell lines but not in HPDE)
Yes: Induced by 5Aza-dC alone? (DAZL) | Induced by 5Aza-dC alone? (EDR1) | Induced by 5Aza-dC alone? (GAGE1) | Induced by 5Aza-dC alone? (GAGE2 (Table 3)) | Induced by 5Aza-dC alone? (GAGE3) | Induced by 5Aza-dC alone? (GAGE4) | Induced by 5Aza-dC alone? (GAGE6) | Induced by 5Aza-dC alone? (GAGE7B (Table 2)) | Induced by 5Aza-dC alone? (KLK12) | Induced by 5Aza-dC alone? (LHX2) | Induced by 5Aza-dC alone? (LIPC) | Induced by 5Aza-dC alone? (MAGE1) | Induced by 5Aza-dC alone? (NGFR) | Induced by 5Aza-dC alone? (NK4) | Induced by 5Aza-dC alone? (PAX6) | Induced by 5Aza-dC alone? (PIG11) | Induced by 5Aza-dC alone? (S100A2) | Induced by 5Aza-dC alone? (SALL1) | Induced by 5Aza-dC alone? (SARP2) | Induced by 5Aza-dC alone? (STC1) | Induced by 5Aza-dC alone? (UCHL1) | Induced by 5Aza-dC alone? (ULBP2) | Induced by 5Aza-dC alone? (WIT-1) | Induced by 5Aza-dC alone? (WNT4) | Induced by 5Aza-dC alone? (XAGE-1) | Induced by 5Aza-dC alone? (hemoglobin, alpha 1 (HBAI)) | Induced by 5Aza-dC alone? (period homolog 1 (PERI)) | Induced by 5Aza-dC alone? (prostate differentiation factor (AF003934)) | Induced by 5Aza-dC alone? (synovial sarcoma, X breakpoint 1 (BC001003))
No: Induced by 5Aza-dC alone? (DAPK2) | Induced by 5Aza-dC alone? (DEAD box RNA helicase (VASA)) | Induced by 5Aza-dC alone? (EGR4) | Induced by 5Aza-dC alone? (EREG) | Induced by 5Aza-dC alone? (GADD45B) | Induced by 5Aza-dC alone? (GAGE2 (Table 2)) | Induced by 5Aza-dC alone? (GAGE7B (Table 3)) | Induced by 5Aza-dC alone? (GAS1) | Induced by 5Aza-dC alone? (H1 historic family, member 2 (BC002649)) | Induced by 5Aza-dC alone? (HEP27) | Induced by 5Aza-dC alone? (HMOX1) | Induced by 5Aza-dC alone? (HPSE) | Induced by 5Aza-dC alone? (HSPA1A) | Induced by 5Aza-dC alone? (ID2) | Induced by 5Aza-dC alone? (ING1) | Induced by 5Aza-dC alone? (ITM3) | Induced by 5Aza-dC alone? (KRT17) | Induced by 5Aza-dC alone? (MAGEC1) | Induced by 5Aza-dC alone? (MBD1) | Induced by 5Aza-dC alone? (MLH1) | Induced by 5Aza-dC alone? (MMP1) | Induced by 5Aza-dC alone? (NOTCH3) | Induced by 5Aza-dC alone? (P-glycoprotein (mdr1)) | Induced by 5Aza-dC alone? (PRG1) | Induced by 5Aza-dC alone? (S100P) | Induced by 5Aza-dC alone? (SGCE) | Induced by 5Aza-dC alone? (SPANXA1) | Induced by 5Aza-dC alone? (SPANXC) | Induced by 5Aza-dC alone? (STAT3) | Induced by 5Aza-dC alone? (TERT) | Induced by 5Aza-dC alone? (UCPH) | Induced by 5Aza-dC alone? (WISP2) | Induced by 5Aza-dC alone? (activity-regulated cytoskeleton-associated protein (APC)) | Induced by 5Aza-dC alone? (aik3) | Induced by 5Aza-dC alone? (basic fibroblast growth factor (FGF)) | Induced by 5Aza-dC alone? (candidate tumor suppressor gene 21 protein (AF040708)) | Induced by 5Aza-dC alone? (connective tissue growth factor (M92934)) | Induced by 5Aza-dC alone? (cytovillin 2 (VIL2, ezrin)) | Induced by 5Aza-dC alone? (interleukin 8) | Induced by 5Aza-dC alone? (junction adhesion molecule (AF154005)) | Induced by 5Aza-dC alone? (matrix metalloproteinase 8 (MMP3)) | Induced by 5Aza-dC alone? (nucleotide-binding site protein 1 (AF298547)) | Induced by 5Aza-dC alone? (protease inhibitor 12 (neuroserpin) (SERPINU)) | Induced by 5Aza-dC alone? (synovial sarcoma, X breakpoint 2 (AF257500)) | Induced by 5Aza-dC alone? (tissue factor pathway inhibitor-2 (L27624)) | Induced by 5Aza-dC alone? (transketolase-like protein (X91817))
